ChEMBL document CHEMBL4800729 (2021)

Tests used:
[1] = species on record: Sus scrofa; test: Inhibition of ATPase, Na+/K+, Heart at compound concentration of 10.0 uM in the Eurofins-Panlabs enzyme assay (Eurofins_assay_107710); design: substrate with concentration; settings: Compound concentration 10.0 uM
[2] = target: Monoamine oxidase A (MAO-A) (Homo sapiens, UniProt P21397); test: Inhibition of Monoamine Oxidase MAO-A at compound concentration of 10.0 uM in the Eurofins-Panlabs enzyme assay (Eurofins_assay_140010); design: substrate with concentration 50 uM Kynuramine, incubation time 60 min, incubation temperature 37 C; settings: recombinant human MAO-A expressed in insect Hi5 cells, probe Kynuramine (50 uM), compound concentration 10 uM
[3] = target: Alpha-1A adrenergic receptor (Homo sapiens) (UniProt P35348); test: Inhibition of Adrenergic alpha1A at compound concentration of 10.0 uM in the Eurofins-Panlabs radioligand binding assay (Eurofins_assay_203110); design: ligand concentration 0.25 nM; settings: Rattus norvegicus; Compound concentration 10.0 uM
[4] = target: AP2-associated protein kinase 1 (Homo sapiens) (UniProt Q2M2I8); test: AAK1(h) Millipore kinase panel; settings: Compound concentration 1.0 uM
[5] = target: Aurora kinase A (Homo sapiens) (UniProt O14965); test: Aurora_A(h) Millipore kinase panel; settings: Compound concentration 1.0 uM
Chain of Aurora kinase A (Homo sapiens) (O14965 whole entry): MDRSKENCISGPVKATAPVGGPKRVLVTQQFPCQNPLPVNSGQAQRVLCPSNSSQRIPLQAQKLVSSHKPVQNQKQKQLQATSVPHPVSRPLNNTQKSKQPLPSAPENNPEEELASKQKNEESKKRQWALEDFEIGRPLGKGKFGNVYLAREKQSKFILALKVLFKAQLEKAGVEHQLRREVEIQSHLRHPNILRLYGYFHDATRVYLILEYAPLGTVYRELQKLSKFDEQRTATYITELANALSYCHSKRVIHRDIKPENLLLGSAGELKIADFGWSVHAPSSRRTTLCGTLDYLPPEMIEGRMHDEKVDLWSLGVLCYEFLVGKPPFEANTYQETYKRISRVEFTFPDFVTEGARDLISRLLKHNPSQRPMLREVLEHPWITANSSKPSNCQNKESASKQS

[6] = target: Aurora kinase C (Homo sapiens) (UniProt Q9UQB9); test: Aurora_C(h) Millipore kinase panel; settings: Compound concentration 1.0 uM
[7] = target: Bone morphogenetic protein receptor type-2 (Homo sapiens) (UniProt Q13873); test: BMPR2(h) Millipore kinase panel; settings: Compound concentration 1.0 uM
[8] = target: Cyclin-dependent kinase 4/cyclin D (Homo sapiens) (UniProt P11802+P24385+P30281+P30279); test: CDK4/cyclinD Millipore kinase panel; format: protein-complex assay; settings: Compound concentration 1.0 uM
[9] = target: Cyclin-dependent kinase 5/CDK5 activator 1 (Homo sapiens) (UniProt Q00535+Q15078); test: CDK5/p25(h) Millipore kinase panel; format: protein-complex assay; settings: Compound concentration 1.0 uM
[10] = target: Cyclin-dependent kinase-like 2 (Homo sapiens) (UniProt Q92772); test: CDKL2(h) Millipore kinase panel; settings: Compound concentration 1.0 uM
[11] = target: Dual specificity protein kinase CLK1 (Homo sapiens) (UniProt P49759); test: CLK1(h) Millipore kinase panel; settings: Compound concentration 1.0 uM
[12] = target: Discoidin domain-containing receptor 2 (Homo sapiens) (UniProt Q16832); test: DDR2(h) Millipore kinase panel; settings: Compound concentration 1.0 uM
[13] = target: Ephrin type-A receptor 2 (Homo sapiens) (UniProt P29317); test: EphA2(h) Millipore kinase panel; settings: Compound concentration 1.0 uM
[14] = target: Insulin-like growth factor 1 receptor (Homo sapiens) (UniProt P08069); test: IGF-1R(h), activated Millipore kinase panel; settings: Compound concentration 1.0 uM
[15] = target: Insulin receptor (Homo sapiens) (UniProt P06213); test: IR(h),activated Millipore kinase panel; settings: Compound concentration 1.0 uM
Chain of Insulin receptor (Homo sapiens) (P06213 28-758 limits assumed): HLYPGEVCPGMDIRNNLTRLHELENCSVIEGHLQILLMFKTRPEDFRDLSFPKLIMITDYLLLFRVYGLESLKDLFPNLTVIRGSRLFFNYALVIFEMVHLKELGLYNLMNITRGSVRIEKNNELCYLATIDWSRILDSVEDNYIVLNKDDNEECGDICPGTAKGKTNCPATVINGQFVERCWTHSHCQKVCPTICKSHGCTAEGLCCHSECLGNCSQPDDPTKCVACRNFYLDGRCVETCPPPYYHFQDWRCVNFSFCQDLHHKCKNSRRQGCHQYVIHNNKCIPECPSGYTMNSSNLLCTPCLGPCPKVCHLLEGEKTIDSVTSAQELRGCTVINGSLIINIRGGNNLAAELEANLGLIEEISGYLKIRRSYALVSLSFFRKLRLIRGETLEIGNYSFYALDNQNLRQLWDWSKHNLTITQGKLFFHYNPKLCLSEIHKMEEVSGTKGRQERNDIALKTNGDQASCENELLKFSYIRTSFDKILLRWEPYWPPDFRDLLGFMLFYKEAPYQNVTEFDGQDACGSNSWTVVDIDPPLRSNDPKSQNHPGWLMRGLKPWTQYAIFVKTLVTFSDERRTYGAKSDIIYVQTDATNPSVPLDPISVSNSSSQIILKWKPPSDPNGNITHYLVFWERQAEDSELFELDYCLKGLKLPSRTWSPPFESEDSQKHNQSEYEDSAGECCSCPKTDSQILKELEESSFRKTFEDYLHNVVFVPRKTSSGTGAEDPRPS
Chain of Insulin receptor (Homo sapiens) (P06213 763-1382 limits assumed): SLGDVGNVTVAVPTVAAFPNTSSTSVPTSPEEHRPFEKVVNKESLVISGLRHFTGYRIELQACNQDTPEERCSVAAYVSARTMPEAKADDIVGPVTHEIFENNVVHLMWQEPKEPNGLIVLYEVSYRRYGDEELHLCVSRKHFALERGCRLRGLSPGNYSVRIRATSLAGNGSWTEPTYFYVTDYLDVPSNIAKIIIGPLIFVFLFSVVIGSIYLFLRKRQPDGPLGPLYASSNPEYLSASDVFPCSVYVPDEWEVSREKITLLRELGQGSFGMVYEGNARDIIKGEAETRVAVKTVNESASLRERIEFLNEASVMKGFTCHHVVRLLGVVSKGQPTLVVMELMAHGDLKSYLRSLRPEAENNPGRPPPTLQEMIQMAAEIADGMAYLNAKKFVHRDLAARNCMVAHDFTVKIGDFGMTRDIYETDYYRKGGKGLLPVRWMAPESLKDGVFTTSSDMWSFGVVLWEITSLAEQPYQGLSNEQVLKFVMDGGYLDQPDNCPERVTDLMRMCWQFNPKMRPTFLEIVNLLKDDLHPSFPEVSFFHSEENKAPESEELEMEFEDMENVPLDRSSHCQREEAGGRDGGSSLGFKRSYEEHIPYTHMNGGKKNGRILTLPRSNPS

[16] = target: Insulin receptor-related protein (Homo sapiens) (UniProt P14616); test: IRR(h) Millipore kinase panel; settings: Compound concentration 1.0 uM
[17] = target: Tyrosine-protein kinase Lck (Homo sapiens) (UniProt P06239); test: Lck(h) Millipore kinase panel; settings: Compound concentration 1.0 uM
Chain of Tyrosine-protein kinase Lck (Homo sapiens) (P06239 2-509 limits assumed): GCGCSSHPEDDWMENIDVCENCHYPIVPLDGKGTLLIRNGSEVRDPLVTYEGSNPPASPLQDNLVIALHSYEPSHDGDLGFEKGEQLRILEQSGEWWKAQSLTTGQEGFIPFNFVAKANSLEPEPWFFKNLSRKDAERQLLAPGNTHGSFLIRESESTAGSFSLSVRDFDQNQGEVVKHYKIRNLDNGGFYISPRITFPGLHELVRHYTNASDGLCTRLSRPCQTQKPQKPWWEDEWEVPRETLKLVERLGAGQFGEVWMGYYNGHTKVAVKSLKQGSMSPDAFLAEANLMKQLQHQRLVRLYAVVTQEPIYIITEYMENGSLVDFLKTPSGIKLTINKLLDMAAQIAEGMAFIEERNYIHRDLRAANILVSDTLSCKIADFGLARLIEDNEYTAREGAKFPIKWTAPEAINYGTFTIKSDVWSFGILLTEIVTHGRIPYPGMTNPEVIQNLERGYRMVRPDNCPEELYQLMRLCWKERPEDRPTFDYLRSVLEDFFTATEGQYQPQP

[18] = target: Tyrosine-protein kinase Lck (Homo sapiens) (UniProt P06239); test: Lck(h) activated Millipore kinase panel; settings: Compound concentration 1.0 uM
[19] = target: LIM domain kinase 1 (Homo sapiens) (UniProt P53667); test: LIMK1(h) Millipore kinase panel; settings: Compound concentration 1.0 uM
[20] = target: Mitogen-activated protein kinase 1 (Homo sapiens) (UniProt P28482); test: MAPK1(h) Millipore kinase panel; settings: Compound concentration 1.0 uM
[21] = target: Dual specificity mitogen-activated protein kinase kinase 1 (Homo sapiens) (UniProt Q02750); test: MEK1(h) Millipore kinase panel; settings: Compound concentration 1.0 uM
[22] = target: Mitogen-activated protein kinase kinase kinase 2 (Homo sapiens) (UniProt Q9Y2U5); test: MEKK2(h) Millipore kinase panel; settings: Compound concentration 1.0 uM
Chain of Mitogen-activated protein kinase kinase kinase 2 (Homo sapiens) (Q9Y2U5 whole entry): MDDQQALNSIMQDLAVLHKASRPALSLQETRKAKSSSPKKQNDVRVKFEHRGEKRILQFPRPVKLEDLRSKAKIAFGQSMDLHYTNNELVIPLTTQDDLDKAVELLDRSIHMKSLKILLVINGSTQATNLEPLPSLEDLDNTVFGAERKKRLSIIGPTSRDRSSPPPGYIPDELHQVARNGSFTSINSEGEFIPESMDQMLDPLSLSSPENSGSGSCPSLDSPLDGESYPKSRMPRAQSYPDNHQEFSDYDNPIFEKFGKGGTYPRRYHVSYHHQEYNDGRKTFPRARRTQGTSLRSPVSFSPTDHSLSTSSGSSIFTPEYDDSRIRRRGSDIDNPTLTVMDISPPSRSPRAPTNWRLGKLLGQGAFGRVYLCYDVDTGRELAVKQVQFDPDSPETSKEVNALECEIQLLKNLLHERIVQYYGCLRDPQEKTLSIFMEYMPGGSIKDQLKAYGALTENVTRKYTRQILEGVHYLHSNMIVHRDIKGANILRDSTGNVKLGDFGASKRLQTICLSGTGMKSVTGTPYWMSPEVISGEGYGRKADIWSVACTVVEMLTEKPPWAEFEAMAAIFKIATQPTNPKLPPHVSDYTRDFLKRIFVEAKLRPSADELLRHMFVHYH

[23] = target: mTOR/FKBP12A/FKBP12B (Homo sapiens) (UniProt P62942+P68106+P42345); test: mTOR FKBP12(h) Millipore kinase panel; format: protein-complex assay; settings: Compound concentration 1.0 uM
[24] = target: Serine/threonine-protein kinase Nek1 (Homo sapiens) (UniProt Q96PY6); test: NEK1(h) Millipore kinase panel; settings: Compound concentration 1.0 uM
[25] = target: Serine/threonine-protein kinase Nek11 (Homo sapiens) (UniProt Q8NG66); test: NEK11(h) Millipore kinase panel; settings: Compound concentration 1.0 uM
[26] = target: Serine/threonine-protein kinase Nek6 (Homo sapiens) (UniProt Q9HC98); test: NEK6(h) Millipore kinase panel; settings: Compound concentration 1.0 uM
Chain of Serine/threonine-protein kinase Nek6 (Homo sapiens) (Q9HC98 whole entry): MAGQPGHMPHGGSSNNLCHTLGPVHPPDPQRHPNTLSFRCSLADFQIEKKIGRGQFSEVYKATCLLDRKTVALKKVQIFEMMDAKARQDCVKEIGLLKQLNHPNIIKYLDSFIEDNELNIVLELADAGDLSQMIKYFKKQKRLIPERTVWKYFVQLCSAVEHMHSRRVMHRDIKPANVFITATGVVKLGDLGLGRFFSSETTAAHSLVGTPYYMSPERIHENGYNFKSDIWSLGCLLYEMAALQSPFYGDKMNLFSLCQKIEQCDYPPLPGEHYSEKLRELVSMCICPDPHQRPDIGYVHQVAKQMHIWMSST

[27] = target: Serine/threonine-protein kinase Nek9 (Homo sapiens) (UniProt Q8TD19); test: NEK9(h) Millipore kinase panel; settings: Compound concentration 1.0 uM
[28] = target: Serine/threonine-protein kinase pim-1 (Homo sapiens) (UniProt P11309); test: Pim-1(h) Millipore kinase panel; settings: Compound concentration 1.0 uM
[29] = target: Serine/threonine-protein kinase PLK3 (Homo sapiens) (UniProt Q9H4B4); test: Plk3(h) Millipore kinase panel; settings: Compound concentration 1.0 uM
[30] = target: Ribosomal protein S6 kinase alpha-3 (Homo sapiens) (UniProt P51812); test: Rsk2(h) Millipore kinase panel; settings: Compound concentration 1.0 uM
[31] = target: Mitogen-activated protein kinase 13 (Homo sapiens) (UniProt O15264); test: SAPK4(h) Millipore kinase panel; settings: Compound concentration 1.0 uM
[32] = target: Serine/threonine-protein kinase SIK3 (Homo sapiens) (UniProt Q9Y2K2); test: SIK3(h) Millipore kinase panel; settings: Compound concentration 1.0 uM
[33] = target: SRSF protein kinase 2 (Homo sapiens) (UniProt P78362); test: SRPK2(h) Millipore kinase panel; settings: Compound concentration 1.0 uM
[34] = target: Serine/threonine-protein kinase 32C (Homo sapiens) (UniProt Q86UX6); test: STK32C(h) Millipore kinase panel; settings: Compound concentration 1.0 uM
[35] = target: Transcription initiation factor TFIID subunit 1-like (Homo sapiens) (UniProt Q8IZX4); test: TAF1L(h) Millipore kinase panel; settings: Compound concentration 1.0 uM
Chain of Transcription initiation factor TFIID subunit 1-like (Homo sapiens) (Q8IZX4 whole entry): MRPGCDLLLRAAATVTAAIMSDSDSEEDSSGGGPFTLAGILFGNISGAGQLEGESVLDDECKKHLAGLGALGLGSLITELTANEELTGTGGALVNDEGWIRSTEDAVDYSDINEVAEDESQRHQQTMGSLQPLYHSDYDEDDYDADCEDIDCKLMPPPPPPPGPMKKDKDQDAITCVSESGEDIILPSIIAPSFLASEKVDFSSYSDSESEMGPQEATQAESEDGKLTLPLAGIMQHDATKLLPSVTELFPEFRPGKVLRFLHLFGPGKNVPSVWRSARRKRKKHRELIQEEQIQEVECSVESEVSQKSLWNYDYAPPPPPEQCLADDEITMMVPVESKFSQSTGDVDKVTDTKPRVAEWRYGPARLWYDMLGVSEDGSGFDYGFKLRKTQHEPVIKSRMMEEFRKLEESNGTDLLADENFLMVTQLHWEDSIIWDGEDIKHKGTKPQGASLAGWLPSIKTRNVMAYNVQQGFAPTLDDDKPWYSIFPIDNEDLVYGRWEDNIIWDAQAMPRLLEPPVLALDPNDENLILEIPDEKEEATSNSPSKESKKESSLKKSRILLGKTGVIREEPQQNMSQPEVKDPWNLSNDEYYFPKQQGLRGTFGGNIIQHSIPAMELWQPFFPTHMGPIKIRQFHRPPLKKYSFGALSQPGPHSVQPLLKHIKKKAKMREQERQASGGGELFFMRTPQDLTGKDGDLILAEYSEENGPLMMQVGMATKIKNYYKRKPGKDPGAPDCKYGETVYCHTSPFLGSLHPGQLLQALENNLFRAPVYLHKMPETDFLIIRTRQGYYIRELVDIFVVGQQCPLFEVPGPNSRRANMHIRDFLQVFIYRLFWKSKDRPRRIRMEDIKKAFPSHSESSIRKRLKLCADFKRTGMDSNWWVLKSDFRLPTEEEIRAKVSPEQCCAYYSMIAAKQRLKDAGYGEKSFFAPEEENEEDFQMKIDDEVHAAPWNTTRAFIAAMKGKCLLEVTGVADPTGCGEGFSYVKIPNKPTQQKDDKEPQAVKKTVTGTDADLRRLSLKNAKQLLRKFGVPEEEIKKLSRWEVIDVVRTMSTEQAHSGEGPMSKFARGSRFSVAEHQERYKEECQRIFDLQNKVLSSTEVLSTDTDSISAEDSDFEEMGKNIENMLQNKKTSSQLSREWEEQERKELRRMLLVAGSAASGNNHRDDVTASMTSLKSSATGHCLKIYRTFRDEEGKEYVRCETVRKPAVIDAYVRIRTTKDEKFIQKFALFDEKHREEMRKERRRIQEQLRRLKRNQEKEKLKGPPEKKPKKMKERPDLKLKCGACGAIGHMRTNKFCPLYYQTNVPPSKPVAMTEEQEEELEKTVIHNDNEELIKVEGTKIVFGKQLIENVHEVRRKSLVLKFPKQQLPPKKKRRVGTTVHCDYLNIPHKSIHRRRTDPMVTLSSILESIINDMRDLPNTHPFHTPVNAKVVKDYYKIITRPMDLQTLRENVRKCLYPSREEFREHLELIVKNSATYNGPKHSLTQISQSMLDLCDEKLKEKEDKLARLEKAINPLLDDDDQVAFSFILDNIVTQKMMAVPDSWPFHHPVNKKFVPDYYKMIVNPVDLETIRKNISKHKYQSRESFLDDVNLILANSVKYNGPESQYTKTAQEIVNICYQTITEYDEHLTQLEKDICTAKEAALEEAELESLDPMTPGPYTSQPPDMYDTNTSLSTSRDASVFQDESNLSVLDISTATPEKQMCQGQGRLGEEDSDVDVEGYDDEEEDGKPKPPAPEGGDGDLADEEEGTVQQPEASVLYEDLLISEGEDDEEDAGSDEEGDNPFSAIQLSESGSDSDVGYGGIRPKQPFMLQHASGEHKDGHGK

[36] = target: TGF-beta receptor type-2 (Homo sapiens) (UniProt P37173); test: TGFBR2(h) Millipore kinase panel; settings: Compound concentration 1.0 uM
[37] = target: Serine/threonine-protein kinase WNK1 (Homo sapiens) (UniProt Q9H4A3); test: WNK1(h) Millipore kinase panel; settings: Compound concentration 1.0 uM
[38] = target: CDK3/cyclin E (Homo sapiens) (UniProt P24864+O96020+Q00526); test: CDK3/cyclinE(h) Millipore kinase panel; format: protein-complex assay; settings: Compound concentration 1.0 uM
[39] = target: Polyunsaturated fatty acid lipoxygenase ALOX15 (Homo sapiens) (UniProt P16050); test: Inhibition of Lipoxygenase 15-LO at compound concentration of 10.0 uM in the Eurofins-Panlabs enzyme assay (Eurofins_assay_199017); settings: Compound concentration 10.0 uM
[40] = target: D(3) dopamine receptor (Homo sapiens) (UniProt P35462); settings: Compound concentration 10.0 uM
[41] = target: Alpha-2A adrenergic receptor (Homo sapiens) (UniProt P08913); settings: Compound concentration 10.0 uM
[42] = target: Beta-1 adrenergic receptor (Homo sapiens) (UniProt P08588); settings: Compound concentration 10.0 uM
[43] = target: GABA-A receptor; anion channel (Rattus norvegicus) (UniProt O09028+P15431+P18506+P18508+P19969+P20236+P23574+P23576+P28471+P28473+P30191+P62813+P63079+P63138+Q91ZM7+Q9ES14); settings: Compound concentration 10.0 uM
[44] = target: Insulin receptor (Homo sapiens) (UniProt P06213); settings: Rattus norvegicus; Compound concentration 10.0 uM
[45] = target: 3-phosphoinositide-dependent protein kinase 1 (Homo sapiens) (UniProt O15530); test: PDK1(h) Millipore kinase panel; settings: Compound concentration 1.0 uM

Compound: CC[C@@H](Nc1c(C#N)c(-c2ccc(-c3cccc(C)c3F)cc2)nc2cnccc12)C(=O)O [BAY-091]
- inhibition [1]: 20%
- inhibition at 60 min, 10 µM [2]: 7% (not active)
- inhibition [3]: -4%
- inhibition [4]: 7.44%
- inhibition [5]: 13.8%
- inhibition [6]: 4.64%
- inhibition [7]: 4.45%
- inhibition [8]: 11.3%
- inhibition [9]: 6.65%
- inhibition [10]: 19.4%
- inhibition [11]: 3.74%
- inhibition [12]: 16.3%
- inhibition [13]: -0.55%
- inhibition [14]: 12%
- inhibition [15]: 9.43%
- inhibition [16]: 6.25%
- inhibition [17]: -0.68%
- inhibition [18]: -3.67%
- inhibition [19]: 8.64%
- inhibition [20]: 6.43%
- inhibition [21]: 21.5%
- inhibition [22]: 12.8%
- inhibition [23]: 1.38%
- inhibition [24]: 24.4%
- inhibition [25]: 7.12%
- inhibition [26]: 9.31%
- inhibition [27]: 6.61%
- inhibition [28]: -2.53%
- inhibition [29]: -7.76%
- inhibition [30]: 1.78%
- inhibition [31]: -3.58%
- inhibition [32]: 5.14%
- inhibition [33]: -8.51%
- inhibition [34]: 5.49%
- inhibition [35]: -3.49%
- inhibition [36]: 19.3%
- inhibition [37]: 14.7%
- inhibition [38]: 2.41%
- inhibition [39]: 20%
- inhibition [40]: 10.5%
- inhibition [41]: 5.7%
- inhibition [42]: 4.09%
- inhibition [43]: 29.9%
- inhibition [44]: -1%
- inhibition [45]: -8.72%
